What was measured:
[1] = test system: SMN2 minigene mRNA (SMN2-A minigene) in HEK293H cells; assay: SMN2 minigene mRNA splicing RT-qPCR assay in cultured cells; format: cell-based, human; settings: Homo sapiens, HEK293-H; concentration increasing full length SMN2 mRNA 1.5-fold relative to vehicle-treated cells; HEK293H cells with SMN2-A minigene, 24 hours, 7-point concentration data; read-out: EC1.5x for production of full length SMN2 mRNA
In short: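 EC1.5× values derive from a 24 h treatment of SMN2-A minigene HEK293H cells and GAPDH-normalized RT-qPCR of exon 7-included minigene mRNA relative to vehicle-treated cells.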

[2] = test system: Smn protein in SMA patient fibroblast cells (GM03813); assay: Smn protein assay in cultured cells (SMN HTRF); format: cell-based, human; settings: SMA patient fibroblast cells, 48 hours; for maximum fold (Fold) increase of Smn protein: 7-point concentration data, fold relative to vehicle control; for EC1.5x for Smn protein expression: 7-point concentration curve, SMN HTRF, concentration producing 1.5 times Smn protein vs DMSO vehicle control
In short: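 Cells were cultured 72 h, seeded at 5,000/well and dosed with seven concentrations (3.16-fold apart) for 48 h. HTRF on lysates, read at 665 and 620 nm, gave blank-corrected ΔF values relative to DMSO. Potency is reported as EC1.5×, efficacy as maximal fold Smn increase.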

melting point | Structure (SMILES) | EC (1.5-fold increase) [1] | maximum fold (Fold) increase of Smn protein [2] | EC1.5x for Smn protein expression [2]
205 to 209 °C | Cc1nc2ccc(-c3cc(=O)n4cc(N5CCN(C)[C@@H](C)C5)ccc4n3)cc2o1 [Compound 234, 7-[(3S)-3,4-dimethylpiperazin-1-yl]-2-(2-methyl-1,3-benzoxazol-6-yl)-4H-pyrido[1,2-a]pyrimidin-4-one] | < 0.1 µM | ***** (a fold increase >1.65 is indicated by five stars (*****)) | **** (an EC1.5x≤0.3 μM is indicated by four stars (****))
206 to 210 °C | Cc1nc2ccc(-c3cc(=O)n4cc(N5CCC(N(C)C)CC5)ccc4n3)cc2o1 [Compound 240, 7-[4-(dimethylamino)piperidin-1-yl]-2-(2-methyl-1,3-benzoxazol-6-yl)-4H-pyrido[1,2-a]pyrimidin-4-one] | < 0.1 µM | **** (a fold increase between >1.5 and ≤1.65 is indicated by four stars (****)) | **** (an EC1.5x≤0.3 μM is indicated by four stars (****))
189 to 193 °C | Cc1nc2ccc(-c3cc(=O)n4cc(N5CC[C@H](N(C)C)C5)ccc4n3)cc2o1 [Compound 241, 7-[(3S)-3-(dimethylamino)pyrrolidin-1-yl]-2-(2-methyl-1,3-benzoxazol-6-yl)-4H-pyrido[1,2-a]pyrimidin-4-one] | 0.1 to 0.3 µM | ***** (a fold increase >1.65 is indicated by five stars (*****)) | **** (an EC1.5x≤0.3 μM is indicated by four stars (****))
181 to 187 °C | Cc1nc2ccc(-c3cc(=O)n4cc(N5CCN(C)[C@H](C)C5)ccc4n3)cc2o1 [Compound 244, 7-[(3R)-3,4-dimethylpiperazin-1-yl]-2-(2-methyl-1,3-benzoxazol-6-yl)-4H-pyrido[1,2-a]pyrimidin-4-one] | < 0.1 µM | **** (a fold increase between >1.5 and ≤1.65 is indicated by four stars (****)) | **** (an EC1.5x≤0.3 μM is indicated by four stars (****))
205 to 209 °C | COc1ccc(-c2cc(=O)n3cc(N4C[C@H]5CCN(C)[C@H]5C4)ccc3n2)cc1F [Compound 246, 2-(3-fluoro-4-methoxyphenyl)-7-[(3aR,6aR)-1-methylhexahydropyrrolo[3,4-b]pyrrol-5(1H)-yl]-4H-pyrido[1,2-a]pyrimidin-4-one] | 1 to 3 µM | * (A maximum fold increase of ≤1.2 is indicated by one star (*)) | –
170 to 174 °C | COc1ccc(-c2cc(=O)n3cc(C4CCN(C)CC4)cc(C)c3n2)cc1OC [Compound 252, 2-(3,4-dimethoxyphenyl)-9-methyl-7-(1-methylpiperidin-4-yl)-4H-pyrido[1,2-a]pyrimidin-4-one] | 0.1 to 0.3 µM | **** (a fold increase between >1.5 and ≤1.65 is indicated by four stars (****)) | *** (an EC1.5× between >0.3 μM and ≤1 μM is indicated by three stars (***))
205 to 207 °C | Cc1nc2ccc(-c3cc(=O)n4cc(N5CCCNCC5)ccc4n3)cc2s1 [Compound 253, 7-(1,4-diazepan-1-yl)-2-(2-methyl-1,3-benzothiazol-6-yl)-4H-pyrido[1,2-a]pyrimidin-4-one] | 1 to 3 µM | * (A maximum fold increase of ≤1.2 is indicated by one star (*)) | –
158 to 160 °C | Cc1nc2ccc(-c3cc(=O)n4cc(N5CCCN(C)CC5)ccc4n3)cc2s1 [Compound 254, 2-(2-methyl-1,3-benzothiazol-6-yl)-7-(4-methyl-1,4-diazepan-1-yl)-4H-pyrido[1,2-a]pyrimidin-4-one] | 0.1 to 0.3 µM | *** (a fold increase between >1.35 and ≤1.5 is indicated by three stars (***)) | ** (an EC1.5× between >1 μM and ≤3 μM is indicated by two stars (**))
250 to 260 °C | Cc1nc2ccc(-c3cc(=O)n4cc(N5CCN6CCC[C@H]6C5)ccc4n3)cc2s1 [Compound 255, 7-[(8aS)-hexahydropyrrolo[1,2-a]pyrazin-2(1H)-yl]-2-(2-methyl-1,3-benzothiazol-6-yl)-4H-pyrido[1,2-a]pyrimidin-4-one] | 0.3 to 1 µM | ** (a fold increase between >1.2 and ≤1.35 is indicated by two stars (**)) | –
230 to 234 °C | Cc1nc2ccc(-c3cc(=O)n4cc(N5CCN(C)CC5)ccc4n3)cc2s1 [Compound 256, 2-(2-methyl-1,3-benzothiazol-6-yl)-7-(4-methylpiperazin-1-yl)-4H-pyrido[1,2-a]pyrimidin-4-one] | 0.3 to 1 µM | **** (a fold increase between >1.5 and ≤1.65 is indicated by four stars (****)) | ** (an EC1.5× between >1 μM and ≤3 μM is indicated by two stars (**))
220 to 223 °C | Cc1cn2nc(-c3cc(=O)n4cc(N5CCN(C)[C@@H](C)C5)ccc4n3)cc2c(C)n1 [Compound 258, 7-[(3S)-3,4-dimethylpiperazin-1-yl]-2-(4,6-dimethylpyrazolo[1,5-a]pyrazin-2-yl)-4H-pyrido[1,2-a]pyrimidin-4-one] | < 0.1 µM | **** (a fold increase between >1.5 and ≤1.65 is indicated by four stars (****)) | *** (an EC1.5× between >0.3 μM and ≤1 μM is indicated by three stars (***))

The next lines start with the molecule.

Structure (SMILES) | melting point | EC (1.5-fold increase) [1] | maximum fold (Fold) increase of Smn protein [2] | EC1.5x for Smn protein expression [2]
COc1ccc(-c2cc(=O)n3cc(N(C)[C@@H]4CCNC4)ccc3n2)cc1F [Compound 233, 2-(3-fluoro-4-methoxyphenyl)-7-{methyl[(3R)-pyrrolidin-3-yl]amino}-4H-pyrido[1,2-a]pyrimidin-4-one] | 143 to 147 °C | 0.3 to 1 µM | * (A maximum fold increase of ≤1.2 is indicated by one star (*)) | –
COc1ccc(-c2cc(=O)n3cc(O[C@H]4CCNC4)ccc3n2)cc1OC [Compound 236, 2-(3,4-dimethoxyphenyl)-7-[(3S)-pyrrolidin-3-yloxy]-4H-pyrido[1,2-a]pyrimidin-4-one] | 164 to 166 °C | 1 to 3 µM | *** (a fold increase between >1.35 and ≤1.5 is indicated by three stars (***)) | * (An EC1.5× for Smn protein expression between >3 μM and ≤10 μM is indicated by one star (*))
COc1ccc(-c2cc(=O)n3cc(N4CCCNCC4)cc(C)c3n2)cc1OC [Compound 238, 7-(1,4-diazepan-1-yl)-2-(3,4-dimethoxyphenyl)-9-methyl-4H-pyrido[1,2-a]pyrimidin-4-one] | 160 to 177 °C | 0.3 to 1 µM | ** (a fold increase between >1.2 and ≤1.35 is indicated by two stars (**)) | –
COc1ccc(-c2cc(=O)n3cc(C4=CCNCC4)cc(C)c3n2)cc1OC [Compound 247, 2-(3,4-dimethoxyphenyl)-9-methyl-7-(1,2,3,6-tetrahydropyridin-4-yl)-4H-pyrido[1,2-a]pyrimidin-4-one] | 186 to 191 °C | < 0.1 µM | ***** (a fold increase >1.65 is indicated by five stars (*****)) | **** (an EC1.5x≤0.3 μM is indicated by four stars (****))
COc1ccc(-c2cc(=O)n3cc(C4=CCN(CCO)CC4)ccc3n2)cc1OC [Compound 248, 2-(3,4-dimethoxyphenyl)-7-[1-(2-hydroxyethyl)-1,2,3,6-tetrahydropyridin-4-yl]-4H-pyrido[1,2-a]pyrimidin-4-one] | 134 to 137 °C | 0.3 to 1 µM | **** (a fold increase between >1.5 and ≤1.65 is indicated by four stars (****)) | *** (an EC1.5× between >0.3 μM and ≤1 μM is indicated by three stars (***))
COc1ccc(-c2cc(=O)n3cc(C4CCNCC4)cc(C)c3n2)cc1OC [Compound 250, 2-(3,4-dimethoxyphenyl)-9-methyl-7-(piperidin-4-yl)-4H-pyrido[1,2-a]pyrimidin-4-one] | 176 to 181 °C | < 0.1 µM | ***** (a fold increase >1.65 is indicated by five stars (*****)) | **** (an EC1.5x≤0.3 μM is indicated by four stars (****))
COc1ccc(-c2cc(=O)n3cc(C4=CCN(C)CC4)cc(C)c3n2)cc1OC [Compound 251, 2-(3,4-dimethoxyphenyl)-9-methyl-7-(1-methyl-1,2,3,6-tetrahydropyridin-4-yl)-4H-pyrido[1,2-a]pyrimidin-4-one] | 187 to 196 °C | < 0.1 µM | ***** (a fold increase >1.65 is indicated by five stars (*****)) | **** (an EC1.5x≤0.3 μM is indicated by four stars (****))
COc1ccc(-c2cc(=O)n3cc(N4C[C@H]5CNC[C@H]5C4)cc(C)c3n2)cc1OC [Compound 257, 2-(3,4-dimethoxyphenyl)-7-[(3aR,6aS)-hexahydropyrrolo[3,4-c]pyrrol-2(1H)-yl]-9-methyl-4H-pyrido[1,2-a]pyrimidin-4-one] | 215 °C | < 0.1 µM | **** (a fold increase between >1.5 and ≤1.65 is indicated by four stars (****)) | ** (an EC1.5× between >1 μM and ≤3 μM is indicated by two stars (**))
